Source: patent US20210400977A1, “META-DIAMIDE COMPOUNDS FOR CONTROLLING INVERTEBRATE PESTS” (FMC Corporation, priority 2018, published 2021)

Columns and labels:
[1] = system: corn planthopper (Peregrinus maidis (Ashmead)); assay: Test C: control of corn planthopper through contact and/or systemic means; assay type: in vivo; conditions: 144 h, sprayed at 250 ppm, assessed after 6 days
Method: (§1) Test compounds were formulated using a solution containing 10% acetone, 90% water and 300 ppm Activator 90® non-ionic surfactant (Loveland Products, Loveland, Colo., USA). The formulated compounds were applied in 1 mL of liquid through an atomizer nozzle positioned 1.27 cm (0.5 inches) above the top of each test unit. Test compounds were sprayed at the rates indicated, and each test was replicated three times.
For evaluating control of corn planthopper (Peregrinus maidis (Ashmead)) through contact and/or systemic means, the test unit consisted of a small open container with a 3-4-day-old corn (maize) plant inside. White sand was added to the top of the soil prior to application of the test compound.
Test compounds were formulated and sprayed at 250 and/or 50 ppm. After spraying of the formulated test compound, the test units were allowed to dry for 1 h before they were post-infested with ˜15-20 nymphs (18-to-21-day-old). A black, screened cap was placed on the top of each test unit, and the test units were held for 6 days in a growth chamber at 22-24° C. and 50-70% relative humidity. Each test unit was then visually assessed for insect mortality.

[2] = system: sweetpotato whitefly (Bemisia tabaci (Gennadius)); assay: Test G: control of sweetpotato whitefly through contact and/or systemic means; assay type: in vivo; conditions: 312 h, assessed after 13 days
Method: as §1
For evaluating control of the sweetpotato whitefly (Bemisia tabaci (Gennadius)) through contact and/or systemic means, the test unit consisted of a small open container with a 12-14-day-old cotton plant or 7-9-day-old soybean plant inside. Prior to the spray application, both cotyledons were removed from the plant, leaving one true leaf for the assay. Adult whiteflies were allowed to lay eggs on the plant and then were removed from the test unit. Cotton or soybean plants infested with at least 15 eggs were submitted to the test for spraying.
Test compounds were formulated and sprayed at 250 and/or 50 ppm. After spraying, the test units were allowed to dry for 1 hour. The cylinders were then removed, and the units were taken to a growth chamber and held for 13 days at 28° C. and 50-70% relative humidity. Each test unit was then visually assessed for insect mortality.

| melting point | Compound | mortality at 250 ppm [1] | mortality at 50 ppm ([2]; sprayed at 50 ppm) | mortality at 250 ppm ([2]; sprayed at 250 ppm) |
| --- | --- | --- | --- | --- |
|  | CCC(=O)NCc1cc(NC(=O)C2C(c3cc(Cl)cc(Cl)c3)C2(Cl)Cl)ccc1F (stereo not shown) [Compound 153] | ≥ 80% | ≥ 70% | ≥ 70% |
| 151 to 155 °C | CN(Cc1cc(NC(=O)C2C(c3cc(Cl)cc(Cl)c3)C2(F)F)ccc1Cl)C(=O)C1CC1 (stereo not shown) [Compound 32] |  |  |  |
| 101 to 105 °C | CC(=O)NCc1ccc(Cl)c(NC(=O)C2C(c3cc(Cl)cc(Cl)c3)C2(Cl)Cl)c1 (stereo not shown) [Compound 135] |  |  |  |
| 184 to 187 °C | O=C(CC(F)(F)F)NCc1nc(NC(=O)C2C(c3ccc(F)c(Cl)c3)C2(Cl)Cl)ccc1Br (stereo not shown) [Compound 256] |  |  |  |
| 187 to 191 °C | CC(C)C(=O)NCc1ccc(Cl)c(NC(=O)C2C(c3cc(Cl)cc(Cl)c3)C2(Cl)Cl)c1 (stereo not shown) [Compound 136] |  |  |  |
